Measured values: patent US4345938A, “Herbicidal 2-haloacetanilides” (Monsanto Company, priority 1980, dated 1982)

Assays:
Format in all cases: in vivo
Cocklebur = assay: Pre-emergent herbicidal test, Cocklebur; note: ranges in brackets are in %
Excerpt: (§1) A good grade of top soil is placed in aluminum pans and compacted to a depth of three-eights to one-half inch from the top of the pan. On the top of the soil is placed a number of seeds or vegetative propagules of various plant species. The soil required to level fill the pans after seeding or adding vegetative propagules is weighted into a pan. The soil and a known amount of the active ingredient applied in a solvent or as a wettable powder suspension are thoroughly mixed, and used to cover the prepared pans. After treatment, the pans are moved into a greenhouse bench where they are watered by subirrigation as needed to give adequate moisture for germination and growth.
(§2) Approximately 2 weeks after seeding and treating, the plants were observed and the results recorded. The herbicidal rating was obtained by means of a fixed scale based on the percent injury of each plant species. The ratings are defined as follows: […]

Velvetleaf = assay: Pre-emergent herbicidal test, Velvetleaf; note: ranges in brackets are in %
Excerpt: as §1, §2

Yellow Nutsedge = assay: Pre-emergent herbicidal test, Yellow Nutsedge; details: Table I; note: ranges in brackets are in %
Excerpt: as §1, §2

Johnsongrass = assay: Pre-emergent herbicidal test, Johnsongrass; details: Table I; note: ranges in brackets are in %
Excerpt: as §1, §2

Downy Brome = assay: Pre-emergent herbicidal test, Downy Brome; note: ranges in brackets are in %
Excerpt: as §1, §2

Barnyardgrass = assay: Pre-emergent herbicidal test, Barnyardgrass; note: ranges in brackets are in %
Excerpt: as §1, §2

Soybean = assay: Pre-emergent herbicidal test, Soybean; details: Table II; note: ranges in brackets are in %
Excerpt: as §1, §2
(§3) The compounds were further tested by utilizing the above procedure on the following plant species: […]

Sugarbeet = assay: Pre-emergent herbicidal test, Sugarbeet; details: Table II; note: ranges in brackets are in %
Excerpt: as §1, §2, §3

Rice = assay: Pre-emergent herbicidal test, Rice; details: Table II; note: ranges in brackets are in %
Excerpt: as §1, §2, §3

Sorghum = assay: Pre-emergent herbicidal test, Sorghum; details: Table II; note: ranges in brackets are in %
Excerpt: as §1, §2, §3

Wild Buckwheat = assay: Pre-emergent herbicidal test, Wild Buckwheat; details: Table II; note: ranges in brackets are in %
Excerpt: as §1, §2, §3

Hemp Sesbania = assay: Pre-emergent herbicidal test, Hemp Sesbania; details: Table II; note: ranges in brackets are in %
Excerpt: as §1, §2, §3

Sugarbeets = assay: Sugarbeet greenhouse test, crop tolerance
Method: (§4) In the discussion of data below, occasional reference is made to herbicide application rates symbolized as "GR15 " and "GR85 "; these rates are given in kilograms per hectare (kg/ha) which are convertible into pounds per acre (lbs/A) by dividing the kg/ha rate by 1.12.
(§5) In further tests in the greenhouse, the compound of Example 2 was tested for its activity against annual weeds in sugarbeets at test rates within the range of 0.07 to 1.12 kg/ha (0.0625 to 1.0 lb/A). The GR15 and GR85 rates for sugarbeets and the various weeds are shown in Table VI; the selectivity factors for the herbicide against the weeds in sugarbeets are shown in parentheses below the weeds; "NS" means non-selective within the test limits. The following abbreviations are used in the table: barnyardgrass (BYG), wild oats (WO), downy brome (DB); redroot pigweed (RRP), blackgrass (BG), large crabgrass (LCG) and yellow foxtail (YFT).

blackgrass = assay: Sugarbeet greenhouse test, BG; details: in sugarbeets
Excerpt: as §4
(§6) A further guide to the effectiveness of a chemical as a selective herbicide is the "selectivity factor" ("SF") for a herbicide in given crops and weeds. The selectivity factor is a measure of the relative degree of crop safety and weed injury and is expressed in terms of the GR15 /GR85 ratio, i.e., the GR15 rate for the crop divided by the GR85 rate for the weed, both rates in kg/ha (lb/A.)
as §5

yellow foxtail = assay: Sugarbeet greenhouse test, YFT; details: in sugarbeets
Excerpt: as §4, §6, §5

CCCCOc1cccc(CC)c1N(CC)C(=O)CCl [Example 2, N-ethyl-2'-n-butoxy-6'-ethyl-2-chloroacetanilide]
Rating, Cocklebur (Cocklebur; Table I, 5.6 kg/h): 0 (0-24)
Rating, Cocklebur (Cocklebur; Table I, 11.2 kg/h): 0 (0-24)
Rating, Cocklebur (Cocklebur; Table II, 0.01 kg/h): 0 (0-24)
Rating, Cocklebur (Cocklebur; Table II, 0.06 kg/h): 0 (0-24)
Rating, Cocklebur (Cocklebur; Table II, 0.28 kg/h): 0 (0-24)
Rating, Cocklebur (Cocklebur; Table II, 1.12 kg/h): 0 (0-24)
Rating, Cocklebur (Cocklebur; Table II, 5.6 kg/h): 1 (25-49)
Rating, Velvetleaf (Velvetleaf; Table I, 5.6 kg/h): 0 (0-24)
Rating, Velvetleaf (Velvetleaf; Table I, 11.2 kg/h): 1 (25-49)
Rating, Velvetleaf (Velvetleaf; Table II, 0.01 kg/h): 0 (0-24)
Rating, Velvetleaf (Velvetleaf; Table II, 0.06 kg/h): 0 (0-24)
Rating, Velvetleaf (Velvetleaf; Table II, 0.28 kg/h): 0 (0-24)
Rating, Velvetleaf (Velvetleaf; Table II, 1.12 kg/h): 0 (0-24)
Rating, Velvetleaf (Velvetleaf; Table II, 5.6 kg/h): 1 (25-49)
Rating, Yellow Nutsedge (Yellow Nutsedge; 5.6 kg/h): 3 (75-100)
Rating, Yellow Nutsedge (Yellow Nutsedge; 11.2 kg/h): 3 (75-100)
Rating, Johnsongrass (Johnsongrass; 5.6 kg/h): 2 (50-74)
Rating, Johnsongrass (Johnsongrass; 11.2 kg/h): 3 (75-100)
Rating, Downy Brome (Downy Brome; Table I, 5.6 kg/h): 3 (75-100)
Rating, Downy Brome (Downy Brome; Table I, 11.2 kg/h): 3 (75-100)
Rating, Downy Brome (Downy Brome; Table II, 0.01 kg/h): 0 (0-24)
Rating, Downy Brome (Downy Brome; Table II, 0.06 kg/h): 1 (25-49)
Rating, Downy Brome (Downy Brome; Table II, 0.28 kg/h): 3 (75-100)
Rating, Downy Brome (Downy Brome; Table II, 1.12 kg/h): 3 (75-100)
Rating, Downy Brome (Downy Brome; Table II, 5.6 kg/h): 3 (75-100)
Rating, Barnyardgrass (Barnyardgrass; Table I, 5.6 kg/h): 3 (75-100)
Rating, Barnyardgrass (Barnyardgrass; Table I, 11.2 kg/h): 3 (75-100)
Rating, Barnyardgrass (Barnyardgrass; Table II, 0.01 kg/h): 1 (25-49)
Rating, Barnyardgrass (Barnyardgrass; Table II, 0.06 kg/h): 3 (75-100)
Rating, Barnyardgrass (Barnyardgrass; Table II, 0.28 kg/h): 3 (75-100)
Rating, Barnyardgrass (Barnyardgrass; Table II, 1.12 kg/h): 3 (75-100)
Rating, Barnyardgrass (Barnyardgrass; Table II, 5.6 kg/h): 3 (75-100)
Rating, Soybean (Soybean; 0.01 kg/h): 0 (0-24)
Rating, Soybean (Soybean; 0.06 kg/h): 0 (0-24)
Rating, Soybean (Soybean; 0.28 kg/h): 0 (0-24)
Rating, Soybean (Soybean; 1.12 kg/h): 0 (0-24)
Rating, Soybean (Soybean; 5.6 kg/h): 1 (25-49)
Rating, Sugarbeet (Sugarbeet; 0.01 kg/h): 0 (0-24)
Rating, Sugarbeet (Sugarbeet; 0.06 kg/h): 0 (0-24)
Rating, Sugarbeet (Sugarbeet; 0.28 kg/h): 1 (25-49)
Rating, Sugarbeet (Sugarbeet; 1.12 kg/h): 2 (50-74)
Rating, Sugarbeet (Sugarbeet; 5.6 kg/h): 2 (50-74)
Rating, Rice (Rice; 0.01 kg/h): 0 (0-24)
Rating, Rice (Rice; 0.06 kg/h): 0 (0-24)
Rating, Rice (Rice; 0.28 kg/h): 1 (25-49)
Rating, Rice (Rice; 1.12 kg/h): 3 (75-100)
Rating, Rice (Rice; 5.6 kg/h): 3 (75-100)
Rating, Sorghum (Sorghum; 0.01 kg/h): 0 (0-24)
Rating, Sorghum (Sorghum; 0.06 kg/h): 0 (0-24)
Rating, Sorghum (Sorghum; 0.28 kg/h): 1 (25-49)
Rating, Sorghum (Sorghum; 1.12 kg/h): 3 (75-100)
Rating, Sorghum (Sorghum; 5.6 kg/h): 3 (75-100)
Rating, Wild Buckwheat (Wild Buckwheat; 0.01 kg/h): 0 (0-24)
Rating, Wild Buckwheat (Wild Buckwheat; 0.06 kg/h): 0 (0-24)
Rating, Wild Buckwheat (Wild Buckwheat; 0.28 kg/h): 0 (0-24)
Rating, Wild Buckwheat (Wild Buckwheat; 1.12 kg/h): 1 (25-49)
Rating, Wild Buckwheat (Wild Buckwheat; 5.6 kg/h): 2 (50-74)
Rating, Hemp Sesbania (Hemp Sesbania; 0.01 kg/h): 0 (0-24)
Rating, Hemp Sesbania (Hemp Sesbania; 0.06 kg/h): 0 (0-24)
Rating, Hemp Sesbania (Hemp Sesbania; 0.28 kg/h): 0 (0-24)
Rating, Hemp Sesbania (Hemp Sesbania; 1.12 kg/h): 2 (50-74)
Rating, Hemp Sesbania (Hemp Sesbania; 5.6 kg/h): 2 (50-74)
GR15 Rate, Sugarbeets (Sugarbeets): 0.56 Kg/Ha
GR85 Rate, BG (blackgrass): 0.21 Kg/Ha
selectivity factor, BG (blackgrass): 2.7
GR85 Rate, YFT (yellow foxtail): < 0.07 Kg/Ha
selectivity factor, YFT (yellow foxtail): > 8.0
